Where a name gives a salt, the structure may show the parent alone.
How the values were obtained:
Assay type in all cases: in vivo
[1] = tested on: NC/Nga mice manifesting atopic dermatitis; test: Test Example 2: effect on the spontaneous, itch-evoked scratching behavior of NC mice (percent itch suppression); conditions: for % Inhibition (percent itch suppression): total 24-hr scratching counts before vs after, N = 8
Method: Twenty-week-old NC/Nga mice each weighing about 30 g and manifesting atopic dermatitis were purchased from SLC and subjected to the following experiment. A magnet was buried in both hind paws of each mouse and by detecting its magnetism, the movement of the paws was measured with an itch measuring system (product of Neuroscience). Among the scratching actions, those lasting 1.5 seconds or longer were considered itch-evoked and their number was counted continuously. […] Prostaglandin E2 (PGE2; Cayman Chemical), prostaglandin D2 (PGD2; Cayman Chemical), limaprost (synthetic), sulprostone (synthetic) and beraprost (synthetic) were used as drugs according to the present invention. The subsequent 24-hr itch-evoked scratching behavior was measured and the number of itch-evoked scratchings after drug application was compared with the initial count. The experimental data was processed to calculate the percent itch suppression on the basis of the total 24-hr itch-evoked scratching counts before and after drug application (Table 2). [formula]
For significance testing, the itch-evoked scratching counts that were obtained before and after drug application from individual animals in each group treated with a specific concentration of drug were processed by a paired t-test. Differences with a significance level of 0.5% or less were determined as “significant.”
The same test was repeated using 100% ethanol as a control and, as comparative drugs, dexamethasone (a steroid; Wako Pure Chemical Industries, Ltd.), tacrolimus (FK-506, an immunosuppressive; Fujisawa Pharmaceutical Co., Ltd.) and chlorpheniramine maleate (an antihistamine; Kongo Chemical Co., Ltd.) at the concentrations shown in Table 2 below, provided that chlorpheniramine maleate was administered orally.

[2] = tested on: NC/Nga mice manifesting atopic dermatitis; test: Case 2: effects of external use of tacrolimus and dexamethasone on spontaneous itch-evoked scratching behavior in NC/Nga mice; conditions: 0.1% in 100% ethanol, 200 μl applied onto head and dorsal skin; paw movements lasting 1.5 seconds or longer; before application: tacrolimus group 600 ± 64, dexamethasone group 567 ± 77
Method: Experimental animals used were 14-week-old NC/Nga male mice, each weighing about 30 g and manifesting atopic dermatitis, and were divided into groups of 6 mice each.
To perform this test, a commercially available itch measuring system (product of Neuroscience) was used. After magnets for scratch measurement were inserted into both hind paws of each of the above animals, the animals were individually placed in a measurement cage and measured for the number of scratchings over 24 hours (the value before drug application). Then, 200 μl each of 0.1% tacrolimus (Fujisawa Pharmaceutical Co., Ltd.) and dexamethasone (Wako Pure Chemical Industries, Ltd.) dissolved in 100% ethanol were applied onto the head and dorsal skin, followed by recording again the number of scratchings over 24 hours (the value after drug application). The control group received 100% ethanol alone. The results obtained were processed to score itch-evoked scratching behavior, assuming that each paw movement lasting 1.5 seconds or longer was counted as one scratch reflex, followed by statistical analysis to determine statistical significance between the values before and after drug application.

[3] = tested on: NC/Nga mice manifesting atopic dermatitis; test: Test Example 1: effect on the spontaneous, itch-evoked scratching behavior of NC mice; conditions: for % Occurrence of scratching behavior: 0.1% in 100% ethanol, 0.2 ml/mouse on dorsal skin, count before drug application set to 100%, scratchings 1.5 seconds or longer, N = 6
Method: Twenty-week-old NC/Nga mice each weighing about 30 g and manifesting atopic dermatitis were purchased from SLC and subjected to the following experiment. A magnet was buried in both hind paws of each mouse and by detecting its magnetism, the movement of the paws was measured with an itch measuring system (product of Neuroscience). Among the scratching actions, those lasting 1.5 seconds or longer were considered itch-evoked and their number was counted continuously. […] Since there was a wide range of variation among individual animals, the experimental data was scored assuming that the initial count before drug application was set to 100%. The same test was repeated using 100% ethanol as a control and dexamethasone (a steroid; Wako Pure Chemical Industries, Ltd.) and tacrolimus (an immunosuppressive; Fujisawa Pharmaceutical Co., Ltd.) as comparative drugs.

[4] = tested on: dermatitis manifesting NC mice; test: Test Example 3: effect on dermatitis manifesting NC mouse models (dermatitis score); conditions: 0.01% in 100% ethanol, 200 μl on dorsal back seven times a week for 4 weeks; FIGS. 1 and 2; P<0.05
Method: By suitably modifying a method known to the skilled artisan (Jpn. J. Pharmacol. 76, 175-183 (1998) Jun Hiroi, et al. Effects of Tacrolimus Hydrate (FK-506) Ointment on Spontaneous Dermatitis in NC/Nga Mice), the following test was conducted in order to confirm the antipruritic effect of prostaglandins. (Method) Animals: Four-week old SPF NC mice (male) were purchased from Japan SLC; right after their arrival, the SPF NC mice were kept together with dermatitis manifesting male NC mice (older than 20 weeks) for 2 weeks under the following conditions so as to induce itch-evoked scratching behavior. A group of mice manifesting dermatitis and another group of mice not manifesting dermatitis, each consisting of four animals, were allowed to cohabit in a sawdust cage (34×17×39 cm) and kept in an animal house set at room temperature (23±3° C.) and at a humidity of 55±15% under illumination for 12 hours (from 7:00 am to […]). After 2-wk cohabitation, the purchased mice were taken out of the cage and transferred into another cage, where a group of 8 animals were further kept for 14 weeks until the test. […] The mean value ± standard deviation was calculated from the dermatitis scores for each group, and then statistically processed by t-test to determine statistical significance between each drug administration group and ethanol-treated group.

[5] = concentration 0.1% in 100% ethanol, 0.2 ml/mouse on dorsal skin
[6] = external application of 0.1%, same extent as dexamethasone and tacrolimus
[7] = concentration 0.01% in 100% ethanol, 0.2 ml/mouse on dorsal skin

C[C@@H]1C[C@H]2[C@@H]3CCC4=CC(=O)C=C[C@]4(C)[C@@]3(F)[C@@H](O)C[C@]2(C)[C@@]1(O)C(=O)CO [Dexamethasone, dexamethasone]
% Inhibition (percent itch suppression) [1, 5]: 49.5%
number of scratchings over 24 hours, after drug application [2]: 286 ± 52
% Occurrence of scratching behavior [3]: 50 ± 9 %

CCCCC[C@H](O)/C=C/[C@H]1[C@H](O)CC(=O)[C@@H]1C/C=C\CCCC(=O)O [PGE2, prostaglandin E2]
% Inhibition (percent itch suppression) [1, 5]: 54.3%
effect on spontaneous itch-evoked scratching behavior in NC mice (in words) [1, 6]: strongly reduced
% Occurrence of scratching behavior [3]: 46 ± 10 %
effect on spontaneous itch-evoked scratching behavior (in words) [3, 6]: strongly reduced

C=CC[C@@H]1/C=C(\C)C[C@H](C)C[C@H](OC)[C@H]2O[C@@](O)(C(=O)C(=O)N3CCCC[C@H]3C(=O)O[C@H](/C(C)=C/[C@@H]3CC[C@@H](O)[C@H](OC)C3)[C@H](C)[C@@H](O)CC1=O)[C@H](C)C[C@@H]2OC [Tacrolimus, tacrolimus]
% Inhibition (percent itch suppression) [1, 5]: 55.5%
number of scratchings over 24 hours, after drug application [2]: 267 ± 45
% Occurrence of scratching behavior [3]: 45 ± 8 %

CN(C)CCC(c1ccc(Cl)cc1)c1ccccn1 (centres unmarked) [Chlorpheniramine, chlorpheniramine maleate]
% Inhibition (percent itch suppression) ([1]; 10 mg/kg, p.o.): 3.56%
suppression of spontaneous itch-evoked scratching behavior (in words) ([1]; administered orally, 10 mg/kg): no suppression

CCCCC[C@H](O)/C=C/[C@H]1C(=O)C[C@H](O)[C@@H]1C/C=C\CCCC(=O)O [PGD2, prostaglandin D2]
% Inhibition (percent itch suppression) [1, 7]: 56.3%

CCCC[C@H](C)C[C@H](O)/C=C/[C@H]1[C@H](O)CC(=O)[C@@H]1CCCC/C=C/C(=O)O [Limaprost, limaprost]
effect on dermatitis scores compared to the ethanol-treated group [4]: significant suppressive effect
% Inhibition (percent itch suppression) ([1]; concentration 0.001% in 100% ethanol, 0.2 ml/mouse on dorsal skin): 36.2%
% Inhibition (percent itch suppression) [1, 7]: 79.9%

CS(=O)(=O)NC(=O)CCC/C=C\C[C@H]1C(=O)C[C@@H](O)[C@@H]1/C=C/[C@@H](O)COc1ccccc1 [Sulprostone, sulprostone]
% Inhibition (percent itch suppression) [1, 7]: 24.0%

CC#CCC(C)[C@H](O)/C=C/[C@@H]1[C@H]2c3cccc(CCCC(=O)O)c3O[C@H]2C[C@H]1O (mixture of isomers) [Beraprost, beraprost]
effect on dermatitis scores compared to the ethanol-treated group [4]: significant suppressive effect
% Inhibition (percent itch suppression) [1, 7]: 45.6%
% Inhibition (percent itch suppression) [1, 5]: 56.9%

Source: patent US20040266880A1, “Antipruritics” (priority 2002, published 2004)
